Results reported in patent publication US4740233A, “Substituted 1,2,4-triazolo[1,5-a]-pyrimidine-2-sulfonamides and compositions and methods of controlling undesired vegetation and suppressing the nitrification of ammonium nitrogen in soil” (The Dow Chemical Company, priority 1986, dated 1988).

Key:
yellow nutsedge [1] = assay: Postemergent control of plant species; type: in vivo, Cyperus esculentus; conditions: Cyperus, post-emergence, 336 h, read-out: percent postemergent control
Method in brief: (§1)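 Spray emulsion: acetone stock at twice final concentration plus equal volume water with 0.1% wetting agent, applied to separated greenhouse beds at 2-4 leaf stage. Assessed at ~two weeks; score reflects growth reduction compared with untreated plants.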

yellow nutsedge [2] = assay: Control of aquatic plant species (paddy water); type: in vivo, Cyperus esculentus; conditions: Cyperus, 216 h; 2.0 Kg/Ha, nine days; read-out: Percent control
Method in brief: (§2)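 Compound, delivered as an acetone concentrate, is injected directly into paddy water over transplanted 1-2 inch plants flooded about 1 inch deep, with dose set by injected volume; percent control is read nine days later.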

annual morning glory [3] = assay: Postemergent control of plant species; type: in vivo, Ipomoea spp.; conditions: Ipomoea, post-emergence, 336 h, read-out: percent postemergent control
Method in brief: as §1

johnson grass [4] = assay: Postemergent control of plant species; type: in vivo, Sorghum halepense; conditions: Sorghum halepense, post-emergence, 336 h, read-out: percent postemergent control
Method in brief: as §1

sugar beet [5] = assay: Postemergent control of plant species; type: in vivo, Beta saccharifera; conditions: Beta vulgaris, post-emergence, 336 h, read-out: percent postemergent control
Method in brief: as §1

yellow foxtail [6] = assay: Postemergent control of plant species; type: in vivo, Setaria lutescens; conditions: Setaria, post-emergence, 336 h, read-out: percent postemergent control
Method in brief: as §1

cotton [7] = assay: Postemergent control of plant species; type: in vivo, Gossypium spp.; conditions: Gossypium hirsutum, post-emergence, 336 h, read-out: percent postemergent control
Method in brief: as §1

[8] = test system: nitrification of ammonium nitrogen; assay: Suppression of nitrification of ammonium nitrogen in soil; conditions: 27° C.
Method in brief: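 Value is % NH4-N remaining after a two-week, 27° C incubation of treated soil held at 1/3 bar tension moisture. Nitrate was measured with an ion-selective electrode after extraction with ammonium sulfate solution and 10 min shaking.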

wheat [9] = assay: Postemergent control of plant species; type: in vivo, Triticum aestivum; conditions: Triticum aestivum, post-emergence, 336 h, read-out: percent postemergent control
Method in brief: as §1

velvetleaf [10] = assay: Postemergent control of plant species; type: in vivo, Abutilon theophrasti; conditions: Abutilon theophrasti, post-emergence, 336 h, read-out: percent postemergent control
Method in brief: as §1

pigweed = assay: Postemergent control of plant species; type: in vivo, Amaranthus spp.; conditions: Amaranthus retroflexus, post-emergence, 336 h, read-out: percent postemergent control
Method in brief: as §1

wild oats [11] = assay: Postemergent control of plant species; type: in vivo, Avena fatua; conditions: Avena fatua, post-emergence, 336 h, read-out: percent postemergent control
Method in brief: as §1

barnyardgrass [12] = assay: Postemergent control of plant species; type: in vivo, Echinochloa crusgalli; conditions: Echinochloa crus-galli, post-emergence, 336 h, read-out: percent postemergent control
Method in brief: as §1

sorghum [13] = assay: Postemergent control of plant species; type: in vivo, Sorghum vulgare; conditions: Sorghum, post-emergence, 336 h, read-out: percent postemergent control
Method in brief: as §1

rice [14] = assay: Postemergent control of plant species; type: in vivo, Oryza sativa; conditions: Oryza sativa, post-emergence, 336 h, read-out: percent postemergent control
Method in brief: as §1

soybean [15] = assay: Postemergent control of plant species; type: in vivo, Glycine max.; conditions: Glycine max, post-emergence, 336 h, read-out: percent postemergent control
Method in brief: as §1

corn [16] = assay: Postemergent control of plant species; type: in vivo, Zea mays; conditions: Zea mays, post-emergence, 336 h, read-out: percent postemergent control
Method in brief: as §1

jimsonweed [17] = assay: Postemergent control of plant species; type: in vivo, Datura stramonium; conditions: Datura stramonium, post-emergence, 336 h, read-out: percent postemergent control
Method in brief: as §1

cocklebur = assay: Postemergent control of plant species; type: in vivo, Xanthium spp.; conditions: Xanthium strumarium, post-emergence, 336 h, read-out: percent postemergent control
Method in brief: as §1

barnyardgrass [18] = assay: Control of aquatic plant species (paddy water); type: in vivo, Echinochloa crusgalli; conditions: Echinochloa crus-galli, 216 h; 2.0 Kg/Ha, nine days; read-out: Percent control
Experimental: In testing for such utility, the plant species to be tested were transplanted into 16 oz. containers into about 2 inches of soil when they were in the 1-2 inch stage and then flooded to a depth of about 1 inch. An acetone concentrate of the chemical to be tested was then injected into the paddy water, the volume injected being varied as desired to provide the desired concentration. Percent control was evaluated nine days after application.

crabgrass [19] = assay: Postemergent control of plant species; type: in vivo, Digitaria spp.; conditions: Digitaria sanguinalis, post-emergence, 336 h, read-out: percent postemergent control
Method in brief: as §1

sprangletop = assay: Control of aquatic plant species (paddy water); type: in vivo, Leptochloa filiformis; conditions: Leptochloa filiformis, 216 h; 2.0 Kg/Ha, nine days; read-out: Percent control
Method in brief: as §2

rape [20] = assay: Postemergent control of plant species; type: in vivo, Brassica napus; conditions: Brassica napus, post-emergence, 336 h, read-out: percent postemergent control
Method in brief: as §1

rice [21] = assay: Control of aquatic plant species (paddy water); type: in vivo, Oryza sativa; conditions: Oryza sativa, 216 h; 2.0 Kg/Ha, nine days; read-out: Percent control
Method in brief: as §2

corn [22] = assay: Preemergent control of plant species; type: in vivo, Zea mays; conditions: Zea mays, pre-emergence, 336 h; 0.25 lb/acre; read-out: percent preemergent control
Method in brief: (§3)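 Test compositions were applied evenly to the surface of freshly seeded soil beds and kept under greenhouse conditions for two weeks. Percent control reflects growth reduction compared with water-treated beds of the same species.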

velvetleaf [23] = assay: Preemergent control of plant species; type: in vivo, Abutilon theophrasti; conditions: Abutilon theophrasti, pre-emergence, 336 h; 0.25 lb/acre; read-out: percent preemergent control
Method in brief: as §3

cotton [24] = assay: Preemergent control of plant species; type: in vivo, Gossypium spp.; conditions: Gossypium hirsutum, pre-emergence, 336 h; 0.25 lb/acre; read-out: percent preemergent control
Method in brief: as §3

jimsonweed [25] = assay: Preemergent control of plant species; type: in vivo, Datura stramonium; conditions: Datura stramonium, pre-emergence, 336 h; 0.25 lb/acre; read-out: percent preemergent control
Method in brief: as §3

crabgrass [26] = assay: Preemergent control of plant species; type: in vivo, Digitaria spp.; conditions: Digitaria sanguinalis, pre-emergence, 336 h; 0.25 lb/acre; read-out: percent preemergent control
Experimental: The seeds of various species of plants were planted in beds of good agricultural soil in a greenhouse. A number of compositions of the present invention, generally in the nature of an aqueous emulsion, were applied at rates listed in the table so as to deposit a predetermined amount of active ingredients uniformly throughout the surface of the bed. Another seed bed was treated only with water to serve as a control. After treatment the seed beds were maintained for two weeks under greenhouse conditions conducive for good plant growth and watered as necessary. Control refers to the reduction in growth compared to the observed results of the same untreated species.

rape [27] = assay: Preemergent control of plant species; type: in vivo, Brassica napus; conditions: Brassica napus, pre-emergence, 336 h; 0.25 lb/acre; read-out: percent preemergent control
Method in brief: as §3

sugar beet [28] = assay: Preemergent control of plant species; type: in vivo, Beta saccharifera; conditions: Beta vulgaris, pre-emergence, 336 h; 0.25 lb/acre; read-out: percent preemergent control
Method in brief: as §3

soybean [29] = assay: Preemergent control of plant species; type: in vivo, Glycine max.; conditions: Glycine max, pre-emergence, 336 h; 0.25 lb/acre; read-out: percent preemergent control
Method in brief: as §3

barnyardgrass [30] = assay: Preemergent control of plant species; type: in vivo, Echinochloa crusgalli; conditions: Echinochloa crus-galli, pre-emergence, 336 h; 0.25 lb/acre; read-out: percent preemergent control
Method in brief: as §3

johnson grass [31] = assay: Preemergent control of plant species; type: in vivo, Sorghum halepense; conditions: Sorghum halepense, pre-emergence, 336 h; 0.25 lb/acre; read-out: percent preemergent control
Method in brief: as §3

annual morning glory [32] = assay: Preemergent control of plant species; type: in vivo, Ipomoea spp.; conditions: Ipomoea, pre-emergence, 336 h; 0.25 lb/acre; read-out: percent preemergent control
Method in brief: as §3

yellow nutsedge [33] = assay: Preemergent control of plant species; type: in vivo, Cyperus esculentus; conditions: Cyperus, pre-emergence, 336 h; 0.25 lb/acre; read-out: percent preemergent control
Method in brief: as §3

rice [34] = assay: Preemergent control of plant species; type: in vivo, Oryza sativa; conditions: Oryza sativa, pre-emergence, 336 h; 0.25 lb/acre; read-out: percent preemergent control
Method in brief: as §3

yellow foxtail [35] = assay: Preemergent control of plant species; type: in vivo, Setaria lutescens; conditions: Setaria, pre-emergence, 336 h; 0.25 lb/acre; read-out: percent preemergent control
Method in brief: as §3

sorghum [36] = assay: Preemergent control of plant species; type: in vivo, Sorghum vulgare; conditions: Sorghum, pre-emergence, 336 h; 0.25 lb/acre; read-out: percent preemergent control
Method in brief: as §3

wild oats [37] = assay: Preemergent control of plant species; type: in vivo; conditions: Avena fatua, pre-emergence, 336 h; 0.25 lb/acre; read-out: percent preemergent control
Method in brief: as §3

wheat [38] = assay: Preemergent control of plant species; type: in vivo, Triticum aestivum; conditions: Triticum aestivum, pre-emergence, 336 h; 0.25 lb/acre; read-out: percent preemergent control
Method in brief: as §3

| SMILES | pest or weed control at 500 ppm (yellow nutsedge [1]) | pest or weed control at 2000 g/ha (yellow nutsedge [2]) | pest or weed control at 500 ppm (annual morning glory [3]) | pest or weed control at 500 ppm (johnson grass [4]) | plant injury at 500 ppm (sugar beet [5]) | pest or weed control at 500 ppm (yellow foxtail [6]) | plant injury at 500 ppm (cotton [7]) | % NH4-N Remaining After 2 Weeks Incubation ([8]; 0.01 ppm) | % NH4-N Remaining After 2 Weeks Incubation ([8]; 0.1 ppm) | % NH4-N Remaining After 2 Weeks Incubation ([8]; 1 ppm) | % NH4-N Remaining After 2 Weeks Incubation ([8]; 10 ppm) | plant injury at 500 ppm (wheat [9]) | pest or weed control at 500 ppm (velvetleaf [10]) | pest or weed control at 500 ppm (pigweed) | pest or weed control at 500 ppm (wild oats [11]) | pest or weed control at 500 ppm (barnyardgrass [12]) | plant injury at 500 ppm (sorghum [13]) | plant injury at 500 ppm (rice [14]) | plant injury at 500 ppm (soybean [15]) | plant injury at 500 ppm (corn [16]) | other results |
| --- | --- | --- | --- | --- | --- | --- | --- | --- | --- | --- | --- | --- | --- | --- | --- | --- | --- | --- | --- | --- | --- |
| Cc1cc(C)n2nc(S(=O)(=O)Nc3ccccc3)nc2n1 [Compound 1] | 0% | 70% | 0% | 60% | 85% | 40% | 0% | 0% | 0% | 35% | 75% | 0% | 70% | 60% | 0% | 15% | 40% | 0% | 30% | 0% | pest or weed control at 500 ppm (jimsonweed [17]): 0%; pest or weed control at 500 ppm (cocklebur): 0%; pest or weed control at 2000 g/ha (barnyardgrass [18]): 95%; pest or weed control at 500 ppm (crabgrass [19]): 0%; pest or weed control at 2000 g/ha (sprangletop): 90%; plant injury at 500 ppm (rape [20]): 60%; pest or weed control at 2000 g/ha (rice [21]): 97% |
| COc1cccc(C(F)(F)F)c1NS(=O)(=O)c1nc2nc(C)cc(C)n2n1 [Compound 104] |  |  |  |  |  |  |  |  |  |  |  |  |  |  |  |  |  |  |  |  | plant injury at 280.212 g/ha (corn [22]): 100%; pest or weed control at 280.212 g/ha (velvetleaf [23]): 100%; plant injury at 280.212 g/ha (cotton [24]): 100%; pest or weed control at 280.212 g/ha (jimsonweed [25]): 100%; pest or weed control at 280.212 g/ha (crabgrass [26]): 100%; plant injury at 280.212 g/ha (rape [27]): 100%; plant injury at 280.212 g/ha (sugar beet [28]): 100%; plant injury at 280.212 g/ha (soybean [29]): 100%; pest or weed control at 280.212 g/ha (barnyardgrass [30]): 100%; pest or weed control at 280.212 g/ha (johnson grass [31]): 100%; pest or weed control at 280.212 g/ha (annual morning glory [32]): 100%; pest or weed control at 280.212 g/ha (yellow nutsedge [33]): 100%; plant injury at 280.212 g/ha (rice [34]): 100%; pest or weed control at 280.212 g/ha (yellow foxtail [35]): 100%; plant injury at 280.212 g/ha (sorghum [36]): 100%; pest or weed control at 280.212 g/ha (wild oats [37]): 100%; plant injury at 280.212 g/ha (wheat [38]): 100% |
| COc1ccccc1NS(=O)(=O)c1nc2nc(C)cc(C)n2n1 [Compound 4] | 0% | 80% | 0% | 80% | 70% | 0% | 10% | 0% | 0% | 38% | 71% | 0% | 60% | 0% | 0% | 0% | 40% | 40% | 40% | 0% | pest or weed control at 500 ppm (jimsonweed [17]): 60%; pest or weed control at 500 ppm (cocklebur): 40%; pest or weed control at 2000 g/ha (barnyardgrass [18]): 95%; pest or weed control at 500 ppm (crabgrass [19]): 20%; pest or weed control at 2000 g/ha (sprangletop): 45%; plant injury at 500 ppm (rape [20]): 40%; pest or weed control at 2000 g/ha (rice [21]): 90% |
